In assay [1] the test system is Human immunodeficiency virus 1. In words: Compound was tested for anti HIV-1 and cytopathic effects in XTT assay;IA means inactive. The class given is functional, organism-based. In general terms: Cytopathic effects are the visible damage that an infection or toxin causes in cultured cells.
Assay [2] has as its system HIV-1 reverse transcriptase (Human immunodeficiency virus 1). In words: Compound was tested for HIV-1 RT inhibition in in vitro assay;IA means inactive.

Activity calls are given as the source filed them. No cut-off for these calls is given here.

On to `Nc1ccn([C@H]2C[C@H](CO)C(CO)(CO)O2)c(=O)n1`, for which the outcome in assay [1] was inactive. Moreover, in assay [2], the inhibition entry was “inactive”.

In the case of `Cc1cn([C@@H]2C[C@H](CO)C(CO)(CO)O2)c(=O)[nH]c1=O`, the result in assay [1] was inactive. Also, the inhibition entry in assay [2] is “inactive”.

On to `Nc1ccn([C@@H]2C[C@H](CO)C(CO)(CO)O2)c(=O)n1`, for which the result in assay [1] was inactive. Moreover, the inhibition entry in assay [2] is “inactive”.

Consider `Cc1cn([C@H]2C[C@H](CO)C(CO)(CO)O2)c(=O)[nH]c1=O`, for which the result in assay [1] was inactive. In assay [2], the inhibition entry was “inactive”.

(Values after ChEMBL document CHEMBL1128139, “Synthesis of 2,3-dideoxy-3,4-dihydroxymethyl substituted pyrimidine nucleoside analogues” (Bioorg Med Chem Lett, 1995).)
